We go through ten molecules from ChEMBL document CHEMBL3425451, “Novel synthetic bisbenzimidazole that targets angiogenesis in Ehrlich ascites carcinoma bearing mice” (Bioorg Med Chem Lett, 2015).

Test [1] relates to HeLa. Nature of the test: Cytotoxicity against human HeLa cells by MTT assay. On the technique in general: Formazan colour is commonly taken as a measure of viable cells.
Test [2] deals with A549. Nature of the test: Cytotoxicity against human A549 cells by MTT assay. It is filed as functional, cell-based.
Test [3] can be described thus: Cytotoxicity against human HCT116 cells by MTT assay. Type of test: functional, cell-based. The following applies: HCT-116.
For test [4], the system named is Vero. Nature of the test: Cytotoxicity against African green monkey Vero cells by MTT assay. It is filed as cell-based. As to conditions: Chlorocebus sabaeus.
The nature of test [5]: Inhibition of peritoneal angiogenesis of mouse EAT implanted in Swiss albino mouse assessed as reduction in micro vessel density by measuring number of micro vessels per high power field at 10 mg/kg injected into peritoneum by hematoxylin and eosin staining method (reference value: 54 +/- 6 vessels/high power field). It is filed as functional.
Test [6] concerns EAT. Nature of the test: […] of apoptosis in mouse EAT implanted in Swiss albino mouse assessed as induction of small blebs formation at 10 mg/kg injected into peritoneum by Giemsa staining based microscopy. It is filed as functional, organism-based. The arrangement: dose 10 mg/kg.
Test [7] has as its system EAT. Nature of the test: […] of apoptosis in mouse EAT implanted in Swiss albino mouse assessed as induction of apoptotic bodies formation at 10 mg/kg injected into peritoneum by Giemsa staining based microscopy. It is filed as functional, organism-based. The arrangement: dose 10 mg/kg.
Test [8] deals with EAT. As to the kind of experiment: Antitumor activity against mouse EAT implanted in Swiss albino mouse assessed as reduction in ascites fluid volume at 10 mg/kg injected into peritoneum and measured on day 12. It is filed as functional, organism-based. The arrangement: dose 10 mg/kg.
The subject of test [9] is EAT. As to the kind of experiment: […] of apoptosis in mouse EAT implanted in Swiss albino mouse assessed as induction of cell shrinkage at 10 mg/kg injected into peritoneum by Giemsa staining based microscopy. Type of test: functional, organism-based. The arrangement: dose 10 mg/kg.
The test system of test [10] is EAT. Nature of the test: Antitumor activity against mouse EAT implanted in Swiss albino mouse assessed as reduction in tumor cell viability at 10 mg/kg injected into peritoneum and measured on day 12 by trypan blue dye exclusion assay. The arrangement: dose 10 mg/kg. It is filed as functional, organism-based.
In test [11] the test system is HeLa. Nature of the test: Induction of apoptosis in human HeLa cells assessed as accumulation at subG1 phase at 25 uM by propidium iodide staining based flow cytometry. It is filed as functional, cell-based. The following applies: TDE = time-dependent effect. (In general: In flow cytometry, cells or beads pass a laser one at a time.)
Test [12] relates to EAT. Nature of the test: […] of apoptosis in mouse EAT implanted in Swiss albino mouse assessed as induction of DNA fragmentation at 10 mg/kg injected into peritoneum by ethidium bromide staining based electrophoresis method. It is filed as functional, organism-based. The arrangement: dose 10 mg/kg.
The test system of test [13] is EAT. Nature of the test: Antitumor activity against mouse EAT implanted in Swiss albino mouse assessed as reduction in body weight at 10 mg/kg injected into peritoneum and measured on day 11. The arrangement: dose 10 mg/kg. It is filed as functional, organism-based.
For test [14], the system named is EAT. Nature of the test: Inhibition of peritoneal angiogenesis of mouse EAT implanted in Swiss albino mouse assessed as reduction in micro vessel density at 10 mg/kg injected into peritoneum by hematoxylin and eosin staining method. It is filed as functional, organism-based. The arrangement: dose 10 mg/kg.
The subject of test [15] is EAT. Nature of the test: Inhibition of peritoneal angiogenesis of mouse EAT implanted in Swiss albino mouse at 10 mg/kg injected into peritoneum. The arrangement: dose 10 mg/kg. It is filed as functional, organism-based.
Test [16] is described as follows: Inhibition of VEGF production in mouse EAT implanted in Swiss albino mouse peritoneal cavity at 10 mg/kg injected into peritoneum by ELISA method (reference value: 2412 +/- 10 ng). Type of test: functional.

Activity calls are given as the source filed them. The rule behind the calls is not given here.

The IC50 is the point on the concentration scale where inhibition reaches its midpoint.

On to `CCCc1nc2c(C)cc(-c3nc4ccccc4n3C)cc2n1S(=O)(=O)c1c(C)cc(C)cc1C`, for which the IC50 in test [1] was 21 µM; in [2] it was more than 50 µM; in test [3], 29.9 µM; in test [4], more than 50 µM.
Turning to `CCCc1nc2c(C)cc(-c3nc4ccccc4n3C)cc2n1S(=O)(=O)c1ccccc1Cl`, the IC50 in [1] is more than 50 µM.
The same measure, in the same setting: the result for `CCCc1nc2c(C)cc(-c3nc4ccccc4n3C)cc2n1S(=O)(=O)c1ccccc1Br` reads more than 50 µM.
`CCCc1nc2c(C)cc(-c3nc4ccccc4n3C)cc2n1S(=O)(=O)c1ccc(C)cc1`: the IC50 in [1] is 20.1 µM; in [2], more than 50 µM; in [3], 41.6 µM; in test [4] it was more than 50 µM.
On to `CCCc1nc2c(C)cc(-c3nc4ccccc4n3C)cc2n1S(=O)(=O)c1ccc(F)cc1`, for which the IC50 in [1] is 16.7 µM; in test [2] it was 32.2 µM; in test [3], 19.9 µM; in test [4], more than 50 µM. The results for the Activity in test [5], in test [11] and in test [16] were 8, “tde” and 225 ng, respectively. The result in [6], in [7], in [9] and in test [12] was Active. Also, the inhibition result in test [8], in test [10], in test [13], in [14] and in [15] was “Active” throughout.
For the molecule `CCCc1nc2c(C)cc(-c3nc4ccccc4n3C)cc2n1S(=O)(=O)c1ccc(OC)cc1`, the IC50 in test [1] was 18.3 µM; in [2] it was 34.7 µM; in test [3], 19.1 µM; in test [4], more than 50 µM.
Molecule `CCCc1nc2c(C)cc(-c3nc4ccccc4n3C)cc2n1S(=O)(=O)c1cc(Cl)ccc1Cl` came in with an IC50 in test [1] of more than 50 µM.
Consider `CCCc1nc2c(C)cc(-c3nc4ccccc4n3C)cc2n1S(=O)(=O)c1ccc(Br)cc1`, for which the IC50 was 24.7 µM in test [1], 35.1 µM in test [2], 49.3 µM in test [3] and more than 50 µM in test [4].
The like results for `CCCc1nc2c(C)cc(-c3nc4ccccc4n3C)cc2n1S(=O)(=O)c1ccc(Cl)cc1` were, in that order, 21.4 µM, more than 50 µM, 36.8 µM and more than 50 µM.
With `CCCc1nc2c(C)cc(-c3nc4ccccc4n3C)cc2n1S(=O)(=O)c1ccccc1`, the IC50 in [1] is 23.8 µM; in test [2], more than 50 µM; in test [3] it was more than 50 µM; in test [4], more than 50 µM.
